Measured values from patent publication US10584115B2, “Substituted pyridine and pyrazine BMI-1 inhibitors” (PTC Therapeutics, Inc., priority 2013, dated 2020).
Like-named read-outs stand apart in the source and are kept apart here.

Key:
Bmi-1 protein = assay: Sandwich ELISA Assay (Bmi-1 protein level in HT-1080 cells after compound treatment); type: cell-based
In short: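 Sandwich ELISA quantified Bmi-1 protein against recombinant standard (125–8000 pg/mL), with lysates captured overnight at 4 °C and signal by HRP/TMB at 450 nm (570 nm reference). Lysates came from HT-1080 cells incubated 40–48 h with test compounds in 0.5% DMSO.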

[1] = Table 1, Bmi-1 sandwich ELISA, read-out: ELISA EC50 value for Bmi-1 protein
[2] = read-out: ELISA EC50 value for Bmi-1 protein, Table 1, Bmi-1 sandwich ELISA

| Compound | melting point [°C] | EC50 (Bmi-1 protein; [1]) [nM] | EC50 (Bmi-1 protein; [2]) [nM] |
| --- | --- | --- | --- |
| Cc1nc2ccc(F)cn2c1-c1cc(N)cc(Nc2ccc(C(F)(F)F)cc2)n1 [compound 316, 6-(6-fluoro-2-methylimidazo[1,2-a]pyridin-3-yl)-N^2-[4-(trifluoromethyl)phenyl]pyridine-2,4-diamine] | 161 to 163 | – | 1 to 10 |
| Cc1nc2ccc(F)cc2n1-c1cncc(Nc2ccc(OC(F)F)c(F)c2)n1 [compound 320, N-[4-(difluoromethoxy)-3-fluorophenyl]-6-(6-fluoro-2-methyl-1H-benzimidazol-1-yl)pyrazin-2-amine] | 230 to 231 | 10 to 100 | – |
| CCn1nc(C(F)(F)F)c(-c2cncc(Nc3ccc(C(F)(F)F)cc3)n2)c1C [compound 329, 6-[1-ethyl-5-methyl-3-(trifluoromethyl)-1H-pyrazol-4-yl]-N-[4-(trifluoromethyl)phenyl]pyrazin-2-amine] | 150 to 151 | 10 to 100 | – |
| CCn1nc(C(F)(F)F)c(-c2cncc(Nc3ccc(OC(F)(F)F)cc3)n2)c1C [compound 331, 6-[1-ethyl-5-methyl-3-(trifluoromethyl)-1H-pyrazol-4-yl]-N-[4-(trifluoromethoxy)phenyl]pyrazin-2-amine] | 128 to 129 | 100 to 3000 | – |
| Cc1nn(CCO)c(C)c1-c1cncc(Nc2ccc(C(F)(F)F)cc2)n1 [compound 335, 2-[3,5-dimethyl-4-(6-{[4-(trifluoromethyl)phenyl]amino}pyrazin-2-yl)-1H-pyrazol-1-yl]ethanol] | 172 to 174 | 1 to 10 | – |
| Fc1ccc2nc(C3CC3)c(-c3cncc(Nc4ccc(C(F)(F)F)cc4)n3)n2c1 [compound 336, 6-(2-cyclopropyl-6-fluoroimidazo[1,2-a]pyridin-3-yl)-N-[4-(trifluoromethyl)phenyl]pyrazin-2-amine] | 183 to 185 | 1 to 10 | – |
| Fc1ccc2nc(C3CC3)c(-c3cncc(Nc4ccc(OC(F)F)cc4)n3)n2c1 [compound 337, 6-(2-cyclopropyl-6-fluoroimidazo[1,2-a]pyridin-3-yl)-N-[4-(difluoromethoxy)phenyl]pyrazin-2-amine] | 183 to 185 | < 1 | – |
| N#Cc1cc(Nc2ccc(OC(F)(F)F)cc2)nc(-c2c(C3CC3)nc3ccc(F)cn23)c1 [compound 350, 2-(2-cyclopropyl-6-fluoroimidazo[1,2-a]pyridin-3-yl)-6-{[4-(trifluoromethoxy)phenyl]amino}pyridine-4-carbonitrile] | 194 to 195 | 10 to 100 | – |
| Cc1nn(CCn2ncnn2)c(C)c1-c1cncc(Nc2ccc(C(F)(F)F)cc2)n1 [compound 352, 6-{3,5-dimethyl-1-[2-(2H-tetrazol-2-yl)ethyl]-1H-pyrazol-4-yl}-N-[4-(trifluoromethyl)phenyl]pyrazin-2-amine] | 138 to 139 | – | 1 to 10 |
| Fc1ccc2nc(C3CC3)n(-c3cncc(Nc4ccc(C(F)(F)F)cc4)n3)c2c1 [compound 362, 6-(2-cyclopropyl-6-fluoro-1H-benzimidazol-1-yl)-N-[4-(trifluoromethyl)phenyl]pyrazin-2-amine] | 263 to 265 | 1 to 10 | – |
| Nc1cc(Nc2ccc(OC(F)F)cc2)nc(-c2c(C3CC3)nc3ccc(F)cn23)c1 [compound 365, 6-(2-cyclopropyl-6-fluoroimidazo[1,2-a]pyridin-3-yl)-N^2-[4-(difluoromethoxy)phenyl]pyridine-2,4-diamine] | 185 to 186 | 100 to 3000 | – |
| Nc1cc(Nc2ccc(OC(F)F)c(F)c2)nc(-c2c(C3CC3)nc3ccc(F)cn23)c1 [compound 366, 6-(2-cyclopropyl-6-fluoroimidazo[1,2-a]pyridin-3-yl)-N^2-[4-(difluoromethoxy)-3-fluorophenyl]pyridine-2,4-diamine] | 169 to 170 | 100 to 3000 | – |
| Nc1cc(Nc2ccc(OC(F)(F)F)cc2)nc(-c2c(C3CC3)nc3ccc(F)cn23)c1 [compound 367, 6-(2-cyclopropyl-6-fluoroimidazo[1,2-a]pyridin-3-yl)-N^2-[4-(trifluoromethoxy)phenyl]pyridine-2,4-diamine] | 166 to 168 | 10 to 100 | – |
| NC(=O)Nc1cc(Nc2ccc(C(F)(F)F)cc2)nc(-c2c(C3CC3)nc3ccc(F)cn23)c1 [compound 369, 1-[2-(2-cyclopropyl-6-fluoroimidazo[1,2-a]pyridin-3-yl)-6-{[4-(trifluoromethyl)phenyl]amino}pyridin-4-yl]urea] | 232 to 235 | – | 100 to 3000 |
| CCn1nc(C)c(-c2cncc(Nc3ccc(OC(F)F)c(F)c3)n2)c1C [compound 382, N-[4-(difluoromethoxy)-3-fluorophenyl]-6-(1-ethyl-3,5-dimethyl-1H-pyrazol-4-yl)pyrazin-2-amine] | 129 to 130 | 1 to 10 | – |
| Cc1nn(Cc2ccncc2)c(C)c1-c1cncc(Nc2ccc(C(F)(F)F)cc2)n1 [compound 403, 6-[3,5-dimethyl-1-(pyridin-4-ylmethyl)-1H-pyrazol-4-yl]-N-[4-(trifluoromethyl)phenyl]pyrazin-2-amine] | 66 to 67 | 10 to 100 | – |
| N#Cc1cc(Nc2ccc(C(F)(F)F)cc2)nc(-n2c(C3CC3)nc3ccc(F)cc32)c1 [compound 410, 2-(2-cyclopropyl-6-fluoro-1H-benzimidazol-1-yl)-6-{[4-(trifluoromethyl)phenyl]amino}pyridine-4-carbonitrile] | 291 to 293 | 10 to 100 | – |

Now from value to molecule, other results behind:

| melting point [°C] | EC50 (Bmi-1 protein; [1]) [nM] | Compound | EC50 (Bmi-1 protein; [2]) [nM] |
| --- | --- | --- | --- |
| 182 to 183 | 1 to 10 | Cc1nc2ccc(F)cn2c1-c1cc(N)cc(Nc2ccc(OC(F)F)c(F)c2)n1 [compound 315, N^2-[4-(difluoromethoxy)-3-fluorophenyl]-6-(6-fluoro-2-methylimidazo[1,2-a]pyridin-3-yl)pyridine-2,4-diamine] | – |
| 59 to 60 | 10 to 100 | CCc1nn(C)c(CC)c1-c1cncc(Nc2ccc(C(F)(F)F)cc2)n1 [compound 332, 6-(3,5-diethyl-1-methyl-1H-pyrazol-4-yl)-N-[4-(trifluoromethyl)phenyl]pyrazin-2-amine] | – |
| 122 to 123 | 10 to 100 | CCc1nn(C)c(CC)c1-c1cncc(Nc2ccc(OC(F)(F)F)cc2)n1 [compound 334, 6-(3,5-diethyl-1-methyl-1H-pyrazol-4-yl)-N-[4-(trifluoromethoxy)phenyl]pyrazin-2-amine] | – |
| 173 to 175 | 1 to 10 | Fc1ccc2nc(C3CC3)c(-c3cncc(Nc4ccc(OC(F)F)c(F)c4)n3)n2c1 [compound 338, 6-(2-cyclopropyl-6-fluoroimidazo[1,2-a]pyridin-3-yl)-N-[4-(difluoromethoxy)-3-fluorophenyl]pyrazin-2-amine] | – |
| 245 to 247 | 10 to 100 | N#Cc1cc(Nc2ccc(C(F)(F)F)cc2)nc(-c2c(C3CC3)nc3ccc(F)cn23)c1 [compound 346, 2-(2-cyclopropyl-6-fluoroimidazo[1,2-a]pyridin-3-yl)-6-{[4-(trifluoromethyl)phenyl]amino}pyridine-4-carbonitrile] | – |
| 256 to 258 | 10 to 100 | N#Cc1cc(Nc2ccc(C(F)(F)F)c(F)c2)nc(-c2c(C3CC3)nc3ccc(F)cn23)c1 [compound 347, 2-(2-cyclopropyl-6-fluoroimidazo[1,2-a]pyridin-3-yl)-6-{[3-fluoro-4-(trifluoromethyl)phenyl]amino}pyridine-4-carbonitrile] | – |
| 185 to 186 | 10 to 100 | N#Cc1cc(Nc2ccc(OC(F)F)c(F)c2)nc(-c2c(C3CC3)nc3ccc(F)cn23)c1 [compound 349, 2-(2-cyclopropyl-6-fluoroimidazo[1,2-a]pyridin-3-yl)-6-{[4-(difluoromethoxy)-3-fluorophenyl]amino}pyridine-4-carbonitrile] | – |
| 160 to 162 | 100 to 3000 | Nc1cc(Nc2ccc(C(F)(F)F)cc2)nc(-c2c(C3CC3)nc3ccc(F)cn23)c1 [compound 363, 6-(2-cyclopropyl-6-fluoroimidazo[1,2-a]pyridin-3-yl)-N^2-[4-(trifluoromethyl)phenyl]pyridine-2,4-diamine] | – |
| 158 to 160 | 100 to 3000 | NS(=O)(=O)Nc1cc(Nc2ccc(C(F)(F)F)cc2)nc(-c2c(C3CC3)nc3ccc(F)cn23)c1 [compound 368, N-[2-(2-cyclopropyl-6-fluoroimidazo[1,2-a]pyridin-3-yl)-6-{[4-(trifluoromethyl)phenyl]amino}pyridin-4-yl]sulfuric diamide] | – |
| 50 to 51 | 100 to 3000 | Cc1nn(Cc2ccccn2)c(C)c1-c1cncc(Nc2ccc(C(F)(F)F)cc2)n1 [compound 400, 6-[3,5-dimethyl-1-(pyridin-2-ylmethyl)-1H-pyrazol-4-yl]-N-[4-(trifluoromethyl)phenyl]pyrazin-2-amine] | – |
| 47 to 48 | 100 to 3000 | Cc1nn(Cc2ccccn2)c(C)c1-c1cncc(Nc2ccc(OC(F)F)cc2)n1 [compound 401, N-[4-(difluoromethoxy)phenyl]-6-[3,5-dimethyl-1-(pyridin-2-ylmethyl)-1H-pyrazol-4-yl]pyrazin-2-amine] | – |
| 47 to 48 | 10 to 100 | Cc1nn(Cc2cccnc2)c(C)c1-c1cncc(Nc2ccc(C(F)(F)F)cc2)n1 [compound 402, 6-[3,5-dimethyl-1-(pyridin-3-ylmethyl)-1H-pyrazol-4-yl]-N-[4-(trifluoromethyl)phenyl]pyrazin-2-amine] | – |
| 75 to 77 | 100 to 3000 | Cc1nn(CC[C@H](O)CO)c(C)c1-c1cncc(Nc2ccc(C(F)(F)F)cc2)n1 [compound 404, (2S)-4-[3,5-dimethyl-4-(6-{[4-(trifluoromethyl)phenyl]amino}pyrazin-2-yl)-1H-pyrazol-1-yl]butane-1,2-diol] | – |
